The values that follow are results of earlier work, collected in patent publication US7662811B2, “1,2,3,4-tetrahydropyrazin-2-yl acetamides and methods of use” (Amgen Inc., priority 2004, dated 2010).

No end group written: not given here.

For RPPGFSPFR [BK], the “half-life of BK in plasma” value is “approximately 17 seconds”.
